The record followed here is PubChem BioAssay AID1259407 (Chemical Carcinogenesis Research Information System (CCRIS), 2018).

The test system of this series is CCRIS mutagenicity, Ames/micronucleus/aberration tests. Put plainly: CCRIS mutagenicity studies.
[1] abbreviates: Test System: AMES SALMONELLA TYPHIMURIUM, Strain/Indicator: TA98, Metabolic Activation: NONE, Method: PREINCUBATION
The mark [2] stands for this setting: Test System: AMES SALMONELLA TYPHIMURIUM, Strain/Indicator: TA100, Metabolic Activation: NONE, Method: PREINCUBATION
The mark [3] stands for this setting: Test System: AMES SALMONELLA TYPHIMURIUM, Strain/Indicator: TA98, Metabolic Activation: NONE, Method: STANDARD PLATE.
Where [4] appears, read: Test System: AMES SALMONELLA TYPHIMURIUM, Strain/Indicator: TA100, Metabolic Activation: NONE, Method: STANDARD PLATE.
Where [5] appears, read: Test System: AMES SALMONELLA TYPHIMURIUM, Strain/Indicator: TA1535, Metabolic Activation: NONE, Method: STANDARD PLATE.
[6] abbreviates: Test System: AMES SALMONELLA TYPHIMURIUM, Strain/Indicator: TA1537, Metabolic Activation: NONE, Method: STANDARD PLATE.
The mark [7] stands for this setting: Test System: AMES SALMONELLA TYPHIMURIUM, Strain/Indicator: TA1538, Metabolic Activation: NONE, Method: STANDARD PLATE.

The source made the active and inactive calls. The rule behind the calls is not given here.

As for `CCNC(=O)Nc1ccc(OCC(O)CNC(C)(C)C)c(C(C)=O)c1` (stereo not given), the mutagenic call under setting [1] was “inactive; negative”; the mutagenic call (Test System: AMES SALMONELLA TYPHIMURIUM, Strain/Indicator: TA98, Metabolic Activation: RAT, LIVER, S-9, AROCLOR 1254 (10 OR 50 µL/PLATE), Method: PREINCUBATION) was “inactive; negative”; the mutagenic call under setting [2] is “inactive; negative”; the mutagenic call (Test System: AMES SALMONELLA TYPHIMURIUM, Strain/Indicator: TA100, Metabolic Activation: RAT, LIVER, S-9, AROCLOR 1254 (10 OR 50 µL/PLATE), Method: PREINCUBATION) is “inactive; negative”; the mutagenic call (Test System: AMES SALMONELLA TYPHIMURIUM, Strain/Indicator: TA1535, Metabolic Activation: NONE, Method: PREINCUBATION) is “inactive; negative”; the mutagenic call (Test System: AMES SALMONELLA TYPHIMURIUM, Strain/Indicator: TA1535, Metabolic Activation: RAT, LIVER, S-9, AROCLOR 1254 (10 OR 50 µL/PLATE), Method: PREINCUBATION) is “inactive; negative”. In addition, the mutagenic call reads like this: (Test System: AMES SALMONELLA TYPHIMURIUM, Strain/Indicator: TA1537, Metabolic Activation: NONE, Method: PREINCUBATION) “inactive; negative”; (Test System: AMES SALMONELLA TYPHIMURIUM, Strain/Indicator: TA1537, Metabolic Activation: RAT, LIVER, S-9, AROCLOR 1254 (10 OR 50 µL/PLATE), Method: PREINCUBATION) “inactive; negative”; (Test System: E. COLI, Strain/Indicator: WP2 UVRA, Metabolic Activation: NONE, Method: PREINCUBATION) “inactive; negative”; (Test System: E. COLI, Strain/Indicator: WP2 UVRA, Metabolic Activation: RAT, LIVER, S-9, AROCLOR 1254 (10 OR 50 µL/PLATE), Method: PREINCUBATION) “inactive; negative”.
Turning to `C[C@@H]1CC[C@@]2(OC1)O[C@H]1C[C@H]3[C@@H]4CC=C5C[C@@H](O)CC[C@]5(C)[C@H]4CC[C@]3(C)[C@H]1[C@@H]2C`, the mutagenic call (Test System: AMES SALMONELLA TYPHIMURIUM, Strain/Indicator: TA98, Metabolic Activation: HAMSTER, LIVER, S-9, AROCLOR 1254, Method: STANDARD PLATE) was “inactive; negative”; the mutagenic call under setting [3] was “inactive; negative”; the mutagenic call (Test System: AMES SALMONELLA TYPHIMURIUM, Strain/Indicator: TA98, Metabolic Activation: RAT, LIVER, S-9, AROCLOR 1254, Method: STANDARD PLATE) was “inactive; negative”; the mutagenic call (Test System: AMES SALMONELLA TYPHIMURIUM, Strain/Indicator: TA100, Metabolic Activation: HAMSTER, LIVER, S-9, AROCLOR 1254, Method: STANDARD PLATE) was “inactive; negative”; the mutagenic call under setting [4] is “inactive; negative”; the mutagenic call (Test System: AMES SALMONELLA TYPHIMURIUM, Strain/Indicator: TA100, Metabolic Activation: RAT, LIVER, S-9, AROCLOR 1254, Method: STANDARD PLATE) was “inactive; negative”. Further, the mutagenic call is “inactive; negative” (Test System: AMES SALMONELLA TYPHIMURIUM, Strain/Indicator: TA1535, Metabolic Activation: HAMSTER, LIVER, S-9, AROCLOR 1254, Method: STANDARD PLATE); “inactive; negative” under setting [5]; “inactive; negative” (Test System: AMES SALMONELLA TYPHIMURIUM, Strain/Indicator: TA1535, Metabolic Activation: RAT, LIVER, S-9, AROCLOR 1254, Method: STANDARD PLATE); “inactive; negative” (Test System: AMES SALMONELLA TYPHIMURIUM, Strain/Indicator: TA1537, Metabolic Activation: HAMSTER, LIVER, S-9, AROCLOR 1254, Method: STANDARD PLATE); “inactive; negative” under setting [6]; “inactive; negative” (Test System: AMES SALMONELLA TYPHIMURIUM, Strain/Indicator: TA1537, Metabolic Activation: RAT, LIVER, S-9, AROCLOR 1254, Method: STANDARD PLATE). In addition, the mutagenic call by setting is: (Test System: AMES SALMONELLA TYPHIMURIUM, Strain/Indicator: TA1538, Metabolic Activation: HAMSTER, LIVER, S-9, AROCLOR 1254, Method: STANDARD PLATE) “inactive; negative”; under setting [7], “inactive; negative”; (Test System: AMES SALMONELLA TYPHIMURIUM, Strain/Indicator: TA1538, Metabolic Activation: RAT, LIVER, S-9, AROCLOR 1254, Method: STANDARD PLATE) “inactive; negative”.
Take `Cc1cc2ccccc2c2ccc3c(c12)[C@H]1O[C@H]1[C@@H](O)[C@@H]3O`: under setting [2], the mutagenic call is “active; positive”.
With `N#Cc1cc(Br)c(O)c(Br)c1`, the mutagenic call (Test System: AMES SALMONELLA TYPHIMURIUM, Strain/Indicator: TA98, Metabolic Activation: HAMSTER, LIVER, S-9, AROCLOR 1254 (10%), Method: STANDARD PLATE) is “inactive; negative”; the mutagenic call under setting [3] was “inactive; negative”; the mutagenic call (Test System: AMES SALMONELLA TYPHIMURIUM, Strain/Indicator: TA98, Metabolic Activation: RAT, LIVER, S-9, AROCLOR 1254 (10%), Method: STANDARD PLATE) was “inactive; negative”; the mutagenic call (Test System: AMES SALMONELLA TYPHIMURIUM, Strain/Indicator: TA100, Metabolic Activation: HAMSTER, LIVER, S-9, AROCLOR 1254 (10%), Method: STANDARD PLATE) was “inactive; negative”; the mutagenic call under setting [4] was “inactive; negative”; the mutagenic call (Test System: AMES SALMONELLA TYPHIMURIUM, Strain/Indicator: TA100, Metabolic Activation: RAT, LIVER, S-9, AROCLOR 1254 (10%), Method: STANDARD PLATE) is “inactive; negative”. The mutagenic call was “inactive; negative” (Test System: AMES SALMONELLA TYPHIMURIUM, Strain/Indicator: TA1535, Metabolic Activation: HAMSTER, LIVER, S-9, AROCLOR 1254 (10%), Method: STANDARD PLATE); “inactive; negative” under setting [5]; “inactive; negative” (Test System: AMES SALMONELLA TYPHIMURIUM, Strain/Indicator: TA1535, Metabolic Activation: RAT, LIVER, S-9, AROCLOR 1254 (10%), Method: STANDARD PLATE); “inactive; negative” (Test System: AMES SALMONELLA TYPHIMURIUM, Strain/Indicator: TA1537, Metabolic Activation: HAMSTER, LIVER, S-9, AROCLOR 1254 (10%), Method: STANDARD PLATE); “inactive; negative” under setting [6]; “inactive; negative” (Test System: AMES SALMONELLA TYPHIMURIUM, Strain/Indicator: TA1537, Metabolic Activation: RAT, LIVER, S-9, AROCLOR 1254 (10%), Method: STANDARD PLATE). The mutagenic call is, setting by setting: (Test System: AMES SALMONELLA TYPHIMURIUM, Strain/Indicator: TA1538, Metabolic Activation: HAMSTER, LIVER, S-9, AROCLOR 1254 (10%), Method: STANDARD PLATE) “inactive; negative”; under setting [7], “inactive; negative”; (Test System: AMES SALMONELLA TYPHIMURIUM, Strain/Indicator: TA1538, Metabolic Activation: RAT, LIVER, S-9, AROCLOR 1254 (10%), Method: STANDARD PLATE) “inactive; negative”; (Test System: MOUSE LYMPHOMA, Strain/Indicator: L5178Y (TK+/TK-), Metabolic Activation: RAT, LIVER, S-9, AROCLOR 1254, Method: SUSPENSION/PLATE) “active; positive. reevaluation of results: equivocal”; (Test System: Mouse lymphoma, Strain/Indicator: L5178Y (tk+/tk-), Metabolic Activation: None, Method: Suspension/plate) “inactive; negative”.
As to `COc1cc2c(c(OC)c1CO)C(=O)c1ccccc1C2=O`, the mutagenic call is “inactive; negative” under setting [1]; “inactive; negative” (Test System: AMES SALMONELLA TYPHIMURIUM, Strain/Indicator: TA98, Metabolic Activation: RAT, LIVER, S-9, PCB, Method: PREINCUBATION); “inactive; negative” under setting [2]; “inactive; negative” (Test System: AMES SALMONELLA TYPHIMURIUM, Strain/Indicator: TA100, Metabolic Activation: RAT, LIVER, S-9, PCB, Method: PREINCUBATION).
Regarding `CCN(CC)CCNC(=O)c1ccc(N)cc1`, the mutagenic call by setting is: (Test System: CHINESE HAMSTER V-79, Strain/Indicator: V-79 (HGPRT)/6-THIOGUANINE, Metabolic Activation: NONE) “inactive; negative”; (Test System: UDS HUMAN HEPATOCYTES, Strain/Indicator: THY INCORP, Metabolic Activation: NONE, Method: AUTORADIOGRAPHY) “inactive; negative”; (Test System: UDS RAT HEPATOCYTES, Strain/Indicator: THY INCORP, Metabolic Activation: NONE, Method: AUTORADIOGRAPHY) “inactive; negative”.
